Experimental data from ChEMBL document CHEMBL4507319 (2021).

How the values were obtained:
[1] = target: G protein-coupled receptor kinase 5 (Homo sapiens) (UniProt P34947); assay: GRK5(h) Eurofins kinase panel; conditions: Compound concentration 1.0 uM
[2] = target: Ribosomal protein S6 kinase alpha-5 (Homo sapiens, UniProt O75582); conditions: Compound concentration 1.0 uM
[3] = target: Protein-tyrosine kinase 6 (Homo sapiens) (UniProt Q13882); assay: BRK(h) Eurofins kinase panel; conditions: Compound concentration 1.0 uM
[4] = target: Tau-tubulin kinase 2 (Homo sapiens) (UniProt Q6IQ55); assay: TTBK2(h) Eurofins kinase panel; conditions: Compound concentration 1.0 uM
[5] = target: T1, Cytoplasmic tyrosine-protein kinase BMX (Homo sapiens) (UniProt P51813); assay: Bmx(h) Eurofins kinase panel; conditions: Compound concentration 1.0 uM
T1 sequence (whole entry): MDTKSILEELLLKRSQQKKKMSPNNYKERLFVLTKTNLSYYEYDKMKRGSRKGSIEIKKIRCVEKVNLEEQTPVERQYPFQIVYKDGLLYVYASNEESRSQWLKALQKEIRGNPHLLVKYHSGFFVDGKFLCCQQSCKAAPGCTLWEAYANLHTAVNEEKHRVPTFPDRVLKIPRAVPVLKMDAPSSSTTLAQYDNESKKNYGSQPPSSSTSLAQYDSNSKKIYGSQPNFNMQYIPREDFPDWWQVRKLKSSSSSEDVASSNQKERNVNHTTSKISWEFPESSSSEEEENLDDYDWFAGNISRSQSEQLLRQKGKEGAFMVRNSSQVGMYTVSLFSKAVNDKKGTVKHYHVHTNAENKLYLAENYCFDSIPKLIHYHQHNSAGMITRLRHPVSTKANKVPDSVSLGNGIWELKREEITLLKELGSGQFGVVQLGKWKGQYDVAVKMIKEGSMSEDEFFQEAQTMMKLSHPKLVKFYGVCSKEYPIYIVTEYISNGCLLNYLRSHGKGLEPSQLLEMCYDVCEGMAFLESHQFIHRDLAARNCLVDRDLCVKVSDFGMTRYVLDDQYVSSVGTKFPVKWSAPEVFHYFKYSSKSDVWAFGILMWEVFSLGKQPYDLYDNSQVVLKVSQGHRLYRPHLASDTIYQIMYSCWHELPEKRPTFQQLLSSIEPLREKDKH

[6] = target: Mitogen-activated protein kinase kinase kinase 10 (Homo sapiens) (UniProt Q02779); assay: MLK2(h) Eurofins kinase panel; conditions: Compound concentration 1.0 uM
[7] = target: Serine/threonine-protein kinase MARK2 (Homo sapiens) (UniProt Q7KZI7); assay: PAR-1Balpha(h) Eurofins kinase panel; conditions: Compound concentration 1.0 uM
[8] = target: Serine/threonine-protein kinase PLK1 (Homo sapiens) (UniProt P53350); assay: Plk1(h) Eurofins kinase panel; conditions: Compound concentration 1.0 uM
[9] = target: T2, Testis-specific serine/threonine-protein kinase 1 (Homo sapiens) (UniProt Q9BXA7); assay: TSSK1(h) Eurofins kinase panel; conditions: Compound concentration 1.0 uM
T2 sequence (whole entry): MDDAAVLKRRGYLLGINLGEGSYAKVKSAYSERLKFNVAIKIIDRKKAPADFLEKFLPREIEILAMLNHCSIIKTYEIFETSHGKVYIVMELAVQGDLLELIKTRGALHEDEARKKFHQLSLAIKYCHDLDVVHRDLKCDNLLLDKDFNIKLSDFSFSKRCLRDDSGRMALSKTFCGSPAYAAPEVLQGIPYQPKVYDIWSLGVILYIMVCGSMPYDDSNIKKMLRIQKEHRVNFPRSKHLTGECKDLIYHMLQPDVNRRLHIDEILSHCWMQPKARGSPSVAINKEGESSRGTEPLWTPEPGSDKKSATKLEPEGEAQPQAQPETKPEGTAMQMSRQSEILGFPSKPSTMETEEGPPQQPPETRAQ

[10] = target: T3, Ribosomal protein S6 kinase alpha-1 (Homo sapiens, UniProt Q15418)
[11] = target: Calcium/calmodulin-dependent protein kinase type II subunit gamma (Homo sapiens) (UniProt Q13555); assay: CaMKIIgamma(h) Eurofins kinase panel; conditions: Compound concentration 1.0 uM
[12] = target: T3, Ribosomal protein S6 kinase alpha-1; conditions: Compound concentration 1.0 uM
[13] = target: Proto-oncogene tyrosine-protein kinase receptor Ret (Homo sapiens) (UniProt P07949); assay: Ret(h) Eurofins kinase panel; conditions: Compound concentration 1.0 uM
[14] = target: [Pyruvate dehydrogenase (acetyl-transferring)] kinase isozyme 4, mitochondrial (Homo sapiens) (UniProt Q16654); assay: PDHK4(h) Eurofins kinase panel; conditions: Compound concentration 1.0 uM
[15] = target: T4, Ephrin type-B receptor 4 (Homo sapiens) (UniProt P54760); assay: EphB4(h) Eurofins kinase panel; conditions: Compound concentration 1.0 uM
T4 sequence (whole entry): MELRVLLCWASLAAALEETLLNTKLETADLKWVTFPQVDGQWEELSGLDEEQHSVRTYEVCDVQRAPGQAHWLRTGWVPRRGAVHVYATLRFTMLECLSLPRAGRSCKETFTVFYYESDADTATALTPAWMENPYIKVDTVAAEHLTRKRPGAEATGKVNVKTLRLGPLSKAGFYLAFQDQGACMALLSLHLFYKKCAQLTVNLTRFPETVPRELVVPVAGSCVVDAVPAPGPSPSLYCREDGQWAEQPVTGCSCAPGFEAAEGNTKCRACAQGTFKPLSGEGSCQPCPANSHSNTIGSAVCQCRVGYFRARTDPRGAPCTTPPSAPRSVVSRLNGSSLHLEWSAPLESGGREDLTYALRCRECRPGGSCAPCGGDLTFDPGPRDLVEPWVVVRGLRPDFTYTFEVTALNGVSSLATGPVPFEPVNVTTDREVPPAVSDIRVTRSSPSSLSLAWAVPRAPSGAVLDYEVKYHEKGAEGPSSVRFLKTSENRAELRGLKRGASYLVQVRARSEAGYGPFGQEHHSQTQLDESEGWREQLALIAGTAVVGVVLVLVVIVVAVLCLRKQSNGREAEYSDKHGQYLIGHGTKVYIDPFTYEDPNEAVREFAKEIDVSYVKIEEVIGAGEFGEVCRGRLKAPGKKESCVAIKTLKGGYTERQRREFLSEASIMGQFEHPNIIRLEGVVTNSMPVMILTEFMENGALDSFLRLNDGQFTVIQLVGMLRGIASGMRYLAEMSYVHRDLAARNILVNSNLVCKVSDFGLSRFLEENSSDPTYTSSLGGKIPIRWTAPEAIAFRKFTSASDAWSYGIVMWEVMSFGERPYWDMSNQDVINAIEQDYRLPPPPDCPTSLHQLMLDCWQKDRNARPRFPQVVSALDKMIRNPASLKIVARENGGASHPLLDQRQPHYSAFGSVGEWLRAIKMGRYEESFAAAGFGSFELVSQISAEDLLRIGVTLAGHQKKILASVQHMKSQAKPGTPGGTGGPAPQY

[16] = target: Protein kinase C theta type (Homo sapiens) (UniProt Q04759); conditions: Compound concentration 1000.0 nM

T3 sequence (Q15418 whole entry): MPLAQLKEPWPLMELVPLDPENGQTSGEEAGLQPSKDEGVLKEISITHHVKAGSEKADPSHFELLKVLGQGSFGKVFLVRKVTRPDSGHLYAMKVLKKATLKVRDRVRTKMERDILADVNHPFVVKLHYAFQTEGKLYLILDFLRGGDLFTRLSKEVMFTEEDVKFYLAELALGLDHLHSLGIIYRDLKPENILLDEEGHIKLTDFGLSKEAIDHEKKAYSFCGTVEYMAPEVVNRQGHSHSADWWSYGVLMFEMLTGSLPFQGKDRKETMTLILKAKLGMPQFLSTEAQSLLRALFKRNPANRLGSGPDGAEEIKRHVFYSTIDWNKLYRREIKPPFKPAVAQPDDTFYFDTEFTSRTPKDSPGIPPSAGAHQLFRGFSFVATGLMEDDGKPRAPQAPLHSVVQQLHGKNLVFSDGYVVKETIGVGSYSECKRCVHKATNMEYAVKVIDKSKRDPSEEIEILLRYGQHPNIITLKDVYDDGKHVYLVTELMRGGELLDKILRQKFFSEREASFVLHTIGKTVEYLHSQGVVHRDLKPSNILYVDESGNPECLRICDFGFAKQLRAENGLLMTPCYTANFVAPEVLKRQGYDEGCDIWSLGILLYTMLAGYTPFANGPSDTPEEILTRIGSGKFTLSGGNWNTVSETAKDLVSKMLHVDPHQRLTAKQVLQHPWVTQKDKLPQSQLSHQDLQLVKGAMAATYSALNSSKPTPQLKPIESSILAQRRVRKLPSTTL
Chain of Calcium/calmodulin-dependent protein kinase type II subunit gamma (Homo sapiens) (Q13555 whole entry): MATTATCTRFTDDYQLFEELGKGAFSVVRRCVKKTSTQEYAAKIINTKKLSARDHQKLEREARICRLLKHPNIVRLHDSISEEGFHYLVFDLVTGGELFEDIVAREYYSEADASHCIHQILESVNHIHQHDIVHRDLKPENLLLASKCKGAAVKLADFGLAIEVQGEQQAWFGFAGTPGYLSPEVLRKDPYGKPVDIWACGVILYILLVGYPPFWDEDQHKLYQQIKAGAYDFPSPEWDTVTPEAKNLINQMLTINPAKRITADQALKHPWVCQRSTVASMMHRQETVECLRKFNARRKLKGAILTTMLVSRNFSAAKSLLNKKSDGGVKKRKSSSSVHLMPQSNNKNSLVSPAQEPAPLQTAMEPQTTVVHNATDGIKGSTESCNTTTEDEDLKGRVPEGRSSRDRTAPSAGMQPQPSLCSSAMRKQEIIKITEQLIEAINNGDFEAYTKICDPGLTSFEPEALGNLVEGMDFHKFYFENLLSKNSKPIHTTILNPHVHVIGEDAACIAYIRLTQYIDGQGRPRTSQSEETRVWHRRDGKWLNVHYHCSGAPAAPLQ
Chain of Ribosomal protein S6 kinase alpha-5 (O75582 whole entry, looked up): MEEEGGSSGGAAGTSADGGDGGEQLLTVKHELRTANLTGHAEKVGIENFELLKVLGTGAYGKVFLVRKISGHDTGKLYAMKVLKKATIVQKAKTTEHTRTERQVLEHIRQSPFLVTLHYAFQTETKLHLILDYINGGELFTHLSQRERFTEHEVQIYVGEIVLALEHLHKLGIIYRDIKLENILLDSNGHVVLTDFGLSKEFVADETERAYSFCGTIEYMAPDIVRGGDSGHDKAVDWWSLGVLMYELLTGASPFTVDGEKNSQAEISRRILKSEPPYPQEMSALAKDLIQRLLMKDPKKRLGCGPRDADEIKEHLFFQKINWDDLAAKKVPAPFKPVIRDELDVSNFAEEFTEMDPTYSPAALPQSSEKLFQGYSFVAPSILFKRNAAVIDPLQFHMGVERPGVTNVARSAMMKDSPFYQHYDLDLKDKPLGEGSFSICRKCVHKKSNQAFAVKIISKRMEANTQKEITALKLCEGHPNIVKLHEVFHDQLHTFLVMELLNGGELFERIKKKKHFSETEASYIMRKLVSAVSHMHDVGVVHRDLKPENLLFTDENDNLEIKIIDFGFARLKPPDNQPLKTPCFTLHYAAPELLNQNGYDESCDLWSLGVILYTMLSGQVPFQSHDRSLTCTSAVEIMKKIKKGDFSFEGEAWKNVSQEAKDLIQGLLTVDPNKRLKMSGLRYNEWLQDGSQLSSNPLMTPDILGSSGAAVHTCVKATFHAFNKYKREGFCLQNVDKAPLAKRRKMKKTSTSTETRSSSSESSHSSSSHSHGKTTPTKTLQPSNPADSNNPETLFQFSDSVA
Chain of Proto-oncogene tyrosine-protein kinase receptor Ret (Homo sapiens) (P07949 whole entry): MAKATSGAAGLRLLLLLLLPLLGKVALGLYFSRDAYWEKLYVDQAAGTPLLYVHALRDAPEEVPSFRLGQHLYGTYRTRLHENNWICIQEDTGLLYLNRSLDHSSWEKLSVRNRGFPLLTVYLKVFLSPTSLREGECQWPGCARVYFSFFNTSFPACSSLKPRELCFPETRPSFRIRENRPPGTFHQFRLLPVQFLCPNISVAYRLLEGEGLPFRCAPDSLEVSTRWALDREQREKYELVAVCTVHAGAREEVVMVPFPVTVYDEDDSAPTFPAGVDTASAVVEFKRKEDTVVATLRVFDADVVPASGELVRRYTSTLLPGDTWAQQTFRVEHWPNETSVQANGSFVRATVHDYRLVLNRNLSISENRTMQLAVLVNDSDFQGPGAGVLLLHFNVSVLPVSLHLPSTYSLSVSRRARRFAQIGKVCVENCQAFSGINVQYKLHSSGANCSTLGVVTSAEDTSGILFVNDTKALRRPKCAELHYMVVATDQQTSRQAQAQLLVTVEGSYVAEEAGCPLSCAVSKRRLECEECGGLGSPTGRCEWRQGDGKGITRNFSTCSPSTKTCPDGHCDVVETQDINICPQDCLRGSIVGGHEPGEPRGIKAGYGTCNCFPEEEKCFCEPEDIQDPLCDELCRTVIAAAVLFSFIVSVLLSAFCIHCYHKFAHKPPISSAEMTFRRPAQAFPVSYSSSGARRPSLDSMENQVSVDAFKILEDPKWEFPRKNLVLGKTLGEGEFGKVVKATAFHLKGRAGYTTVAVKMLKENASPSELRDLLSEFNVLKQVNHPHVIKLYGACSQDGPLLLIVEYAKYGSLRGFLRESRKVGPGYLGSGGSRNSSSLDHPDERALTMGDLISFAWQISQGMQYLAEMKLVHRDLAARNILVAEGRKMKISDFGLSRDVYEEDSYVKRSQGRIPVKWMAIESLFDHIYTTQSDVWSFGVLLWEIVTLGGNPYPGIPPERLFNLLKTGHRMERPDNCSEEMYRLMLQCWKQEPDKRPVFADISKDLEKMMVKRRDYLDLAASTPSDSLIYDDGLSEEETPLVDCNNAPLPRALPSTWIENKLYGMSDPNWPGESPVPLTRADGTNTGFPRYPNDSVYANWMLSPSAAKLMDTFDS
Chain of Mitogen-activated protein kinase kinase kinase 10 (Homo sapiens) (Q02779 whole entry, looked up): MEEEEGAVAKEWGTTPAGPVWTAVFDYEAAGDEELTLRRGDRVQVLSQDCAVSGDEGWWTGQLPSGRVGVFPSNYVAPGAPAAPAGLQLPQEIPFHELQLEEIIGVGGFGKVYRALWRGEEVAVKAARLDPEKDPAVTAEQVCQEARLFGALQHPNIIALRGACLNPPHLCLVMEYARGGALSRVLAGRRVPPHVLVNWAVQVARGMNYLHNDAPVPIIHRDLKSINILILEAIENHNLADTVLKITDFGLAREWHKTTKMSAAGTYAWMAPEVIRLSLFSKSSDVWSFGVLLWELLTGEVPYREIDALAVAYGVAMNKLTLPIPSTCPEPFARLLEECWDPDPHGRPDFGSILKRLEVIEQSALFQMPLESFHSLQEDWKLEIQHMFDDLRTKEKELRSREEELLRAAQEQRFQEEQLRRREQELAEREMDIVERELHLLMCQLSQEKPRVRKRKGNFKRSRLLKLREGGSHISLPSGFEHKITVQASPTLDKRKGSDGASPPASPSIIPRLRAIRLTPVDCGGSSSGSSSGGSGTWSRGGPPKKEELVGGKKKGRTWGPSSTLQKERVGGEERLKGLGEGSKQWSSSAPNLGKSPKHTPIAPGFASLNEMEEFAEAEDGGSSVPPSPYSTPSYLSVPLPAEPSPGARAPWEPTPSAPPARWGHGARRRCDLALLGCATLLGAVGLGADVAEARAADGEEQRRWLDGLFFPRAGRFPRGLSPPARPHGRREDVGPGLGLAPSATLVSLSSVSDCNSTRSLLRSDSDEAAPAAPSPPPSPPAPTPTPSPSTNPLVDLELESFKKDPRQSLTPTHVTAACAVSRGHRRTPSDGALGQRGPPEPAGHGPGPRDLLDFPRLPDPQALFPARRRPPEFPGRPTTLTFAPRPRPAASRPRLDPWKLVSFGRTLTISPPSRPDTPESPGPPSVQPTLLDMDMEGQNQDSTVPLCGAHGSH
Chain of [Pyruvate dehydrogenase (acetyl-transferring)] kinase isozyme 4, mitochondrial (Homo sapiens) (Q16654 whole entry, looked up): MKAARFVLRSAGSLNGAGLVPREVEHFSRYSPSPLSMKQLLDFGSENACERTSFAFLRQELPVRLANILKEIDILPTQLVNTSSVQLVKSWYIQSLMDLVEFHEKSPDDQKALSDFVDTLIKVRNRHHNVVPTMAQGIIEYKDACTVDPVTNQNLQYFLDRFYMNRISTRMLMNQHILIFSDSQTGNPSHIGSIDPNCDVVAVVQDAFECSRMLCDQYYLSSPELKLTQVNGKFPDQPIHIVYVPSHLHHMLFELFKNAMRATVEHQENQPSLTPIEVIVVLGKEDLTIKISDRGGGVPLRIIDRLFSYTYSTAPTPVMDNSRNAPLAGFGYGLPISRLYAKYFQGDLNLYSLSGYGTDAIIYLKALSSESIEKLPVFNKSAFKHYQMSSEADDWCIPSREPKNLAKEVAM
Chain of Protein-tyrosine kinase 6 (Homo sapiens) (Q13882 whole entry, looked up): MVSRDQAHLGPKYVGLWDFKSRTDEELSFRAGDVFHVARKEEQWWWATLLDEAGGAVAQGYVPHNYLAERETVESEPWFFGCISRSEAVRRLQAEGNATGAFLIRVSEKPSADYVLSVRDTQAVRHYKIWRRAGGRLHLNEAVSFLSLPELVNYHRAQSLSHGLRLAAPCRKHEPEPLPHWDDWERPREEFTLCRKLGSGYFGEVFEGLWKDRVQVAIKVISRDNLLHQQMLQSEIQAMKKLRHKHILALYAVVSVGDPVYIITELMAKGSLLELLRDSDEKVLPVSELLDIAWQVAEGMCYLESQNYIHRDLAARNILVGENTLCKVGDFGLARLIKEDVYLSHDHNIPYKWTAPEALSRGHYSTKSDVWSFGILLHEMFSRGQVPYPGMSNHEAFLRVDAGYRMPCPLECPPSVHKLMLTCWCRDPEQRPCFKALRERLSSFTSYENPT

Structure (SMILES)	% residual kinase activity [1]	% residual kinase activity [2]	% residual kinase activity [3]	% residual kinase activity [4]	% residual kinase activity [5]	% residual kinase activity [6]	% residual kinase activity [7]	% residual kinase activity [8]	% residual kinase activity [9]	IC50 [10]	% residual kinase activity [11]	% residual kinase activity [12]	% residual kinase activity [13]	% residual kinase activity [14]	% residual kinase activity [15]	residual activity [16]
CCc1ccccc1C(=O)Nc1n[nH]c2c(C)c(F)c(C3C(C#N)=C(C)N(C)C(C)=C3C#N)cc12 [BAY-3827]	98%	10%	104%	108%	113%	94%	32%	102%	84%	9 nM	79%	7%	23%	101%	77%	
CC1=C(C#N)C(c2ccc3c(c2)c(NC(=O)c2ccccc2C)nn3C)C(C#N)=C(C)N1 [BAY-974]																55%
